Laboratory results reported in patent US20240116877A1, “KIT KINASE INHIBITORS AND METHODS OF USE THEREOF” (Deciphera Pharmaceuticals, LLC, priority 2021, published 2024).
Where two headings read alike, the source gives them in different places.

How the values were obtained:
c-KIT kinase (uKIT) = c-KIT kinase (uKIT) (Homo sapiens (Human), UniProt P10721); assay: Biochemical Assay for uKIT (coupled pyruvate kinase/lactate dehydrogenase assay); details: Inhibition of biochemical activity of uKIT kinase; 1 mM ATP
c-KIT kinase (uKIT), sequence (P10721 other isoform, or with tags, fused parts or gaps): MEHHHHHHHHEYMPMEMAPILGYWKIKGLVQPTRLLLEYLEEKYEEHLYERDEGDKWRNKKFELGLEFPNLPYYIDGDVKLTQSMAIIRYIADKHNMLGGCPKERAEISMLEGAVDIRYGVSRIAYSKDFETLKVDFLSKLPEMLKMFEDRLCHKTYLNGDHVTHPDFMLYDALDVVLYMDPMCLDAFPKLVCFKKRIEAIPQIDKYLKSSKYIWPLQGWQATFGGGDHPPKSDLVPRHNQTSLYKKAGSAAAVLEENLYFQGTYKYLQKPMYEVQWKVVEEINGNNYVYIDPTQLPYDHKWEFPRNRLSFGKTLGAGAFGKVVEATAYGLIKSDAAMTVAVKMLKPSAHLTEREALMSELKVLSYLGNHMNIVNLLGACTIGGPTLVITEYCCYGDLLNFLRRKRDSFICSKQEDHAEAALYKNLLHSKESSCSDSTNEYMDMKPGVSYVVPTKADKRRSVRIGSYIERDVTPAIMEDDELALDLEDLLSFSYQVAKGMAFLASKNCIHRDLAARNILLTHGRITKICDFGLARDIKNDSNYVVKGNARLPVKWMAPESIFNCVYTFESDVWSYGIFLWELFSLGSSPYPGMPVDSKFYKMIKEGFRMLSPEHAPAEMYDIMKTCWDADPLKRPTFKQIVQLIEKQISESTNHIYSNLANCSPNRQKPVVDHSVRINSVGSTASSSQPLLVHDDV
Method: Biochemical Assay for uKIT
Activity of c-KIT kinase (SEQ. ID NO. 1 or SEQ. ID NO. 2) was determined spectroscopically using a coupled pyruvate kinase/lactate dehydrogenase assay that continuously monitors the ATP hydrolysis-dependent oxidation of NADH (e.g., Schindler et al. Science (2000) 289: 1938-1942). Assays were conducted in 384-well plates (100 μL final volume) using 16 nM (Decode, SEQ ID No. 1) or 4.36 nM (Signal Chem, SEQ. ID No. 2), 0.7 mg/mL PE4Y substrate, 1.5 units pyruvate kinase, 2.1 units lactate dehydrogenase, 1 mM phosphoenol pyruvate, 0.28 mM NADH and 1 mM ATP in assay buffer (100 mM Tris, pH 7.5, 15 mM MgCl2, 0.5 mM DTT, 0.1% octyl-glucoside, 0.002% (w/v) BSA, and 0.002% Triton X-100). Inhibition of KIT was measured by adding serial diluted test compound (final assay concentration of 1% DMSO). A decrease in absorption at 340 nm was monitored continuously for 6 h at 30° C. on a multi-mode microplate reader (BioTek). The reaction rate was calculated using the 2-3 h time frame. The reaction rate at each concentration of compound was converted to percent inhibition using controls (i.e., reaction with no test compound and reaction with a known inhibitor) and IC50 values were calculated using software routines in Prism (GraphPad software).

GIST 430 cells = assay: GIST 430 Cell Proliferation Assay (resazurin); type: cell-based; details: Homo sapiens; GIST430 cell proliferation
Method: GIST 430 Cell Proliferation Assay
(§1) A serial dilution of test compound was dispensed into a 96-well black clear bottom plate (Corning, Corning, NY). Five thousand cells were added per well in 200 μL complete growth medium. Plates were incubated for 115 h at 37 degrees Celsius, 5% CO2, 95% humidity. At the end of the incubation period 40 μL of a 440 μM solution of resazurin (Sigma, St. Louis, MO) in PBS was added to each well and incubated for an additional 5 h at 37 degrees Celsius, 5% CO2, 95% humidity. Plates were read on a Synergy2 reader (Biotek, Winooski, VT) using an excitation of 540 nm and an emission of 600 nm. Data was analyzed using Prism software (Graphpad, San Diego, CA) to calculate IC50 values.

Ba/F3 KIT mutant cells = assay: Ba/F3 mutant KIT Cell Proliferation Assays (resazurin); type: cell-based; details: Mus musculus, BaF3
Method: Ba/F3 KIT Mutant Cell Line Transduction and Expansion
Several different KIT cDNA encoding various primary and secondary mutations were cloned into a pLV(Exp]-CMV>(cDNA):IRES:puro vector. These vectors were constructed and packaged by VectorBuilder.
Exponentially grown Ba/F3 cells (1×10^6 cells in 1 ml medium) were infected with 60 μl of viral suspension in a 6-well plate in the presence of mIL-3 (10 ng/ml) and polybrene (7.5 μg/ml) (Vector Builder) and incubated for 16 h. After 16 h, the cells were centrifuged, and viral supernatant was discarded. The cells were then re-suspended in fresh medium and allowed to recover for another day. After 72 h post infection, the cells were seeded with complete medium with mIL-3 and with 1 μg/ml puromycin added to medium for selection. After 48 h, cells without viral infection die, whereas successfully transduced cells were collected and changed to fresh medium with 5 ng/ml of IL-3. After a week or two with gradual withdrawal of mIL3 the cells that can continue to proliferate in the absence of mIL3 were exponentially expanded and were frozen down for banking.
Ba/F3 mutant KIT Cell Proliferation Assays
as §1, with “a 384-well” for “a 96-well”, “NY). Six hundred and twenty-five” for “NY). Five thousand”, “in 50” for “in 200”, “for 68” for “for 115”, “at 37° C.,” for “at 37 degrees Celsius,”, “period 10” for “period 40”

[1] = Ba/F3 KIT AYdup mutant cell proliferation, read-out: AYdup IC50
[2] = Ba/F3 KIT AYdup-D816G mutant cell proliferation, read-out: AYdup-D816G IC50
[3] = Ba/F3 KIT AYdup-V654A mutant cell proliferation, read-out: AYdup-V654A IC50
[4] = Ba/F3 KIT exon11del-V654A mutant cell proliferation, read-out: exon11del-V654A IC50
[5] = Ba/F3 KIT exon11del-Y823D mutant cell proliferation, read-out: exon11del-Y823D IC50

Row | Structure (SMILES) | IC50 (c-KIT kinase (uKIT)) | IC50 (GIST 430 cells) | IC50 (Ba/F3 KIT mutant cells; [1]) | IC50 (Ba/F3 KIT mutant cells; [2]) | IC50 (Ba/F3 KIT mutant cells; [3]) | IC50 (Ba/F3 KIT mutant cells; [4]) | IC50 (Ba/F3 KIT mutant cells; [5])
1 | COCCOc1cc(F)c2c(Nc3ccc(NC(=O)NCCC(C)(C)C(F)(F)F)cc3)ncnc2c1 [Example 1, 1-(4-((5-fluoro-7-(2-methoxyethoxy)quinazolin-4-yl)amino)phenyl)-3-(4,4,4-trifluoro-3,3-dimethylbutyl)urea] | ≤ 10 nM | ≤ 10 nM |  |  |  |  | 
2 | COCCOc1cc(F)c2c(Nc3ccc(NC(=O)NCCC(C)(C)F)cc3)ncnc2c1 [Example 2, 1-(3-fluoro-3-methylbutyl)-3-(4-((5-fluoro-7-(2-methoxyethoxy)quinazolin-4-yl)amino)phenyl)urea] | ≤ 10 nM | 10 to 100 nM | ≤ 10 nM | 10 to 100 nM | 10 to 100 nM | 10 to 100 nM | 100 to 1000 nM
3 | COCCOc1cc(F)c2c(Nc3ccc(NC(=O)CCC(C)(C)C)cc3)ncnc2c1 [Example 3, N-(4-((5-fluoro-7-(2-methoxyethoxy)quinazolin-4-yl)amino)phenyl)-4,4-dimethylpentanamide] | 10 to 100 nM | 100 to 1000 nM |  |  |  |  | 
4 | COCCOc1cc(F)c2c(Nc3ccc(NC(=O)NCC4COC4)cc3)ncnc2c1 [Example 11] | 10 to 100 nM | 100 to 1000 nM |  |  |  |  | 
5 | COCCOc1cc(F)c2c(Nc3ccc(NC(=O)NC4CCOCC4)cc3)ncnc2c1 [Example 12] | 10 to 100 nM | 100 to 1000 nM |  |  |  |  | 
6 | COCCOc1cc(F)c2c(Nc3ccc(NC(=O)NCC4CCOCC4)cc3)ncnc2c1 [Example 13] | 10 to 100 nM | 10 to 100 nM |  |  |  |  | 
7 | COCCOc1cc(F)c2c(Nc3ccc(NC(=O)N[C@@H]4CCOC4)cc3)ncnc2c1 [Example 14] | 10 to 100 nM | 100 to 1000 nM |  |  |  |  | 
8 | COCCOc1cc(F)c2c(Nc3ccc(NC(=O)NCCC4(C(F)(F)F)CC4)cc3)ncnc2c1 [Example 17] | ≤ 10 nM | ≤ 10 nM |  |  |  |  | 
9 | COCCOc1cc(F)c2c(Nc3ccc(NC(=O)NCCC4CCCC4)cc3)ncnc2c1 [Example 21] | ≤ 10 nM | ≤ 10 nM |  |  |  |  | 
10 | COCCOc1cc(F)c2c(Nc3ccc(NC(=O)NCCC4CC(F)(F)C4)cc3)ncnc2c1 [Example 22] | ≤ 10 nM | ≤ 10 nM |  |  |  |  | 
11 | COCCOc1cc(F)c2c(Nc3ccc(NC(=O)CCC(C)(C)F)cc3)ncnc2c1 [Example 23] | 100 to 1000 nM | 100 to 1000 nM |  |  |  |  | 
12 | COCCOc1cc(F)c2c(Nc3ccc(NC(=O)NCCC(C)(C)OC)nc3)ncnc2c1 [Example 24] | 100 to 1000 nM | 100 to 1000 nM |  |  |  |  | 
13 | CC(C)(F)CCNC(=O)Nc1ccc(Nc2ncnc3cc(O[C@H]4CCOC4)cc(F)c23)cc1 [Example 160] |  | 10 to 100 nM | ≤ 10 nM | 10 to 100 nM | 10 to 100 nM | 10 to 100 nM | 10 to 100 nM
14 | CC(C)(F)CCNC(=O)Nc1ccc(Nc2ncnc3cc(O[C@@H]4CCOC4)cc(F)c23)cc1 [Example 180] |  | > 1000 nM |  |  | > 1000 nM | > 1000 nM | 100 to 1000 nM
15 | COc1cc2ncnc(Nc3ccc(NC(=O)CC(=O)NCC(C)(C)C)cc3)c2cc1OCCCN1CCOCC1 [Example 206] | 100 to 1000 nM |  |  |  | 100 to 1000 nM | > 1000 nM | > 1000 nM
16 | COCCOc1ccc2ncnc(Nc3ccc(NC(=O)CC(=O)NC4CCC4)cc3)c2c1F [Example 207] | 100 to 1000 nM |  |  |  | 100 to 1000 nM | > 1000 nM | > 1000 nM
17 | COCCOc1ccc2ncnc(Nc3ccc(NC(=O)CC(=O)NC(C)(C)C)cc3)c2c1F [Example 208] | > 1000 nM |  |  |  | > 1000 nM | > 1000 nM | > 1000 nM
18 | COc1cc2ncnc(Nc3ccc(NC(=O)NCCC(C)(C)F)cc3)c2cc1OC [Example 209] | 10 to 100 nM |  |  |  | > 1000 nM | 100 to 1000 nM | > 1000 nM
19 | COc1cc2ncnc(Nc3ccc(NC(=O)NCCC(C)(C)OC)cc3)c2cc1OC [Example 210] | 10 to 100 nM |  |  |  | > 1000 nM | > 1000 nM | > 1000 nM
20 | COc1cc(F)c2c(Nc3ccc(NC(=O)CC(=O)NCC(C)(C)C)cc3)ncnc2c1 [Example 211] | 10 to 100 nM |  |  |  | 10 to 100 nM | 10 to 100 nM | 10 to 100 nM
21 | COc1cc2ncnc(Nc3ccc(NC(=O)CC(=O)NCC(C)(C)C)cc3)c2cc1OC [Example 213] | 10 to 100 nM |  |  |  | 100 to 1000 nM | > 1000 nM | > 1000 nM
22 | COCCOc1cc(F)c2c(Nc3ccc(NC(=O)CC(=O)N4CCC[C@@H]4C(C)C)cc3)ncnc2c1 [Example 214] | 10 to 100 nM |  |  |  | 10 to 100 nM | 10 to 100 nM | 10 to 100 nM
23 | COCCOc1ccc2ncnc(Nc3ccc(NC(=O)NCCC(C)(C)OC)cc3)c2c1F [Example 215] | 10 to 100 nM |  |  |  | 100 to 1000 nM | 100 to 1000 nM | 100 to 1000 nM
24 | COCCOc1ccc2ncnc(Nc3ccc(NC(=O)NCCC(C)(C)C#N)cc3)c2c1F [Example 216] | 10 to 100 nM |  |  |  | 100 to 1000 nM | 100 to 1000 nM | 100 to 1000 nM
25 | COCCOc1ccc2ncnc(Nc3ccc(NC(=O)CC(=O)NCC(C)(C)C)cc3)c2c1F [Example 217] | 100 to 1000 nM |  |  |  | 100 to 1000 nM | > 1000 nM | > 1000 nM
26 | COc1cc(F)c2c(Nc3ccc(NC(=O)NCCC(C)(C)C#N)cc3)ncnc2c1 [Example 219] | 10 to 100 nM |  |  |  | 10 to 100 nM | 10 to 100 nM | 10 to 100 nM
27 | COCCOc1ccc2c(Nc3ccc(NC(=O)NCCC(C)(C)F)cc3)ncnc2c1 [Example 220] | ≤ 10 nM |  |  |  | 100 to 1000 nM | 100 to 1000 nM | 10 to 100 nM
28 | COCCOc1ccc2c(Nc3ccc(NC(=O)CC(=O)NCC(C)(C)C)cc3)ncnc2c1 [Example 221] | 10 to 100 nM |  |  |  | 10 to 100 nM | 100 to 1000 nM | 100 to 1000 nM
